Here are results for four compounds from patent US20110225663A1, “METHOD FOR PRODUCING EUKARYOTIC ORGANISMS WITH ENHANCED PATHOGEN RESISTANCE AND/OR RESISTANCE TO STRESS AND EUKARYOTIC TRANSGENIC ORGANISMS WITH ENHANCED PATHOGEN RESISTANCE AND/OR RESISTANCE TO STRESS” (WESTFAELISCHE WILHELMS-UNIVERSITAET MUENSTER, priority 2008, published 2011).

The test system of one assay is NADPH oxidase. From the text:
This leads to the formation of hypersensitive lesions in leaf tissue of resistant varieties after pathogen infection (incompatible interaction).

The subject of a further assay is G6PDH. Description: Inhibitor study with Glucosamine-6-P in tobacco leaves infected with P. nicotianae. In kind it is in vivo. The source says:
The involvement of the oxidative pentose phosphate pathway (OPPP) in the oxidative burst of plants was shown by inhibitor studies with Glucosamine-6 phosphate (Glucosamine-6-P). This is a well-known competitive inhibitor for G6PDH (as described in Glaser B L and Brown D H: Purification and properties of D-glucose 6-phosphate dehydrogenase, J Biol Chem 216, pp 67-79 (1955)), the first enzyme of the OPPP, which transforms G6P into 6-phosphogluconolactone.
Hydrogen peroxide (H2O2) accumulation was detected by in situ staining with 3,3-diaminobenzidine (DAB) following a modified protocol of Thordal-Christensen H, Zhang Z G, Wei Y D, Collinge D B: Subcellular localization of H2O2 in plants: H2O2 accumulation in papillae and hypersensitive response during the barley-powdery mildew interaction, Plant J 11, pp 1187-1194 (1997). Leaves were placed in DAB solution (1 mg mL^−1, pH 3.8) for 6 h. A dark-brown polymerization product formed at sites where DAB reacts with H2O2 produced by the tissue. Incubations were stopped and leaf tissue was simultaneously cleared from chlorophyll by boiling in ethanol for 10 min.

Assay [1] deals with Arabidopsis glucose-6-phosphate dehydrogenase P2 (At1g24280), recombinant enzyme with C-terminal Strep-tag. As to conditions: cited from earlier work.
Assay [2] deals with Arabidopsis thaliana glucose-6-phosphate dehydrogenase isoform At1g24280 (P2 class), N-terminally truncated without transit peptide (cP2, 5′ delta 195 bp) (Arabidopsis thaliana, UniProt Q8L743). The assay can be described thus: biochemical.
Setting [3] is: FIG. 2 bottom, infiltrated tobacco leaf.

pKi: −log10 of the molar value.

Sequence of Arabidopsis thaliana glucose-6-phosphate dehydrogenase isoform At1g24280 (P2 class), N-terminally truncated without transit peptide (cP2, 5′ delta 195 bp) (Q8L743 67-599): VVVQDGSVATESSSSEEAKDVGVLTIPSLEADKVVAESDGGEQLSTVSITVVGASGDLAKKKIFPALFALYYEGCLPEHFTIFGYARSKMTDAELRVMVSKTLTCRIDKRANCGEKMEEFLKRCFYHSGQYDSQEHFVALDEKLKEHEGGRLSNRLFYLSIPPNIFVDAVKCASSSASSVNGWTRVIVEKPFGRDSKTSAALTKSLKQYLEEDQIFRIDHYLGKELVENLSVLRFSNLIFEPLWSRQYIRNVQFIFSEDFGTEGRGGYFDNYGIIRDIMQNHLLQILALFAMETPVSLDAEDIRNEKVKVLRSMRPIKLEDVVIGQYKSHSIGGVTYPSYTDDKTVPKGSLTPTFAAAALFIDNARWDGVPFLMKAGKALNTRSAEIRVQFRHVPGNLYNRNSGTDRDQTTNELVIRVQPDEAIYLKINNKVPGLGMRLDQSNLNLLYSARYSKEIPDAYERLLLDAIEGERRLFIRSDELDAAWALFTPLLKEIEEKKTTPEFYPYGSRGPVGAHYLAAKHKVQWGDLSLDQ

Regarding `c1ccc2c(c1)[I+]c1ccccc1-2` [DPI, diphenylene iodonium], in the assay on NADPH oxidase (setting [3]), the “defence-induced H2O2 production (DAB-staining) and formation of hypersensitive lesions” value is given as “Interference”. For the same compound, the “formation of hypersensitive lesions after infection with P. nicotianae” value with NADPH oxidase (tobacco leaves treated with 25-100 mM DPI) is reported as “did not induce the formation of hypersensitive lesions”.

Regarding `N[C@@H]1[C@@H](O)[C@H](O)[C@@H](COP(=O)(O)O)O[C@@H]1O` [GN6P, Glucosamine-6 phosphate], the “defence-induced H2O2 production (DAB-staining) and formation of hypersensitive lesions” value in the assay with G6PDH (setting [3]) was “Interference”. Also, the “ROS production after infection with P. nicotianae” value with G6PDH (tobacco leaves treated with 25-50 mM GN6P) was “did not result in detectable ROS production”.

Regarding `NC(=O)c1ccc[n+]([C@@H]2O[C@H](COP(=O)(O)OP(=O)(O)OC[C@H]3O[C@@H](n4cnc5c(N)ncnc54)[C@H](OP(=O)(O)O)[C@@H]3O)[C@@H](O)[C@H]2O)c1` [NADP+, nicotinamide-dinucleotide phosphate, oxidized form], in assay [1] (read-out: Km[NADP+], Wakao and Benning (2005)), the Michaelis constant (Km) (in general, the concentration of substrate that gives half-maximal velocity) is 17 µM.

For `NC(=O)C1=CN([C@@H]2O[C@H](COP(=O)(O)OP(=O)(O)OC[C@H]3O[C@@H](n4cnc5c(N)ncnc54)[C@H](OP(=O)(O)O)[C@@H]3O)[C@@H](O)[C@H]2O)C=CC1` [NADPH, nicotinamide-dinucleotide phosphate, reduced form], the pKi (in general, −log10 of the Ki, conventionally taken in molar units) is 5.34 in assay [2]; 4.66 in assay [1] (Wakao and Benning (2005), read-out: Ki[NADPH]).
